Legend:
Assay type in all cases: functional
SN12C [1] = assay: Antiproliferative activity against human SN12C cells
[2] = Antiproliferative activity against human Hs 578T cells at 10 uM assessed as cell growth inhibition relative to control; settings: values are per cent of control
COLO 205 = assay: Antiproliferative activity against human COLO205 cells at 10 uM assessed as cell growth inhibition relative to control; settings: values are per cent of control
UACC-62 [3] = assay: Antiproliferative activity against human UACC62 cells at 10 uM assessed as cell growth inhibition relative to control; settings: values are per cent of control
MOLT-4 = assay: Antiproliferative activity against human MOLT4 cells at 10 uM assessed as cell growth inhibition relative to control; settings: values are per cent of control
U-251 = assay: Antiproliferative activity against human U251 cells
MDA-MB-231 = assay: Antiproliferative activity against human MDA-MB-231 cells
KM12 [4] = assay: Antiproliferative activity against human KM12 cells
HT-29 [5] = assay: Antiproliferative activity against human HT-29 cells at 10 uM assessed as cell growth inhibition relative to control; settings: values are per cent of control
UO-31 [6] = assay: Antiproliferative activity against human UO31 cells at 10 uM assessed as cell growth inhibition relative to control; settings: values are per cent of control
IGROV-1 = assay: Antiproliferative activity against human IGROV1 cells at 10 uM assessed as cell growth inhibition relative to control; settings: values are per cent of control
HL-60(TB) [7] = assay: Antiproliferative activity against human HL-60(TB) cells
NCI-H460 [8] = assay: Antiproliferative activity against human NCI-H460 cells
A549 [9] = assay: Antiproliferative activity against human A549 cells
ACHN [10] = assay: Antiproliferative activity against human ACHN cells at 10 uM assessed as cell growth inhibition relative to control; settings: values are per cent of control
M14 = assay: Antiproliferative activity against human M14 cells
A549 [11] = assay: Antiproliferative activity against human A549 cells at 10 uM assessed as cell growth inhibition relative to control; settings: values are per cent of control
HOP-92 [12] = assay: Antiproliferative activity against human HOP92 cells at 10 uM assessed as cell growth inhibition relative to control; settings: values are per cent of control
SK-MEL-5 = assay: Antiproliferative activity against human SK-MEL-5 cells
OVCAR-4 = assay: Antiproliferative activity against human OVCAR4 cells
NCI-H226 [13] = assay: Antiproliferative activity against human NCI-H226 cells
PC-3 = assay: Antiproliferative activity against human PC3 cells
HOP-92 [14] = assay: Antiproliferative activity against human HOP92 cells
SF-539 = assay: Antiproliferative activity against human SF539 cells
MCF7 = assay: Antiproliferative activity against human MCF7 cells at 10 uM assessed as cell growth inhibition relative to control; settings: values are per cent of control
SK-OV-3 = assay: Antiproliferative activity against human SKOV3 cells at 10 uM assessed as cell growth inhibition relative to control; settings: values are per cent of control
BT-549 = assay: Antiproliferative activity against human BT549 cells at 10 uM assessed as cell growth inhibition relative to control; settings: values are per cent of control
TK-10 = assay: Antiproliferative activity against human TK10 cells at 10 uM assessed as cell growth inhibition relative to control; settings: values are per cent of control
SW-620 = assay: Antiproliferative activity against human SW620 cells
ACHN [15] = assay: Antiproliferative activity against human ACHN cells
OVCAR-8 = assay: Antiproliferative activity against human OVCAR8 cells at 10 uM assessed as cell growth inhibition relative to control; settings: values are per cent of control
Malme-3M = assay: Antiproliferative activity against human MALME-3M cells at 10 uM assessed as cell growth inhibition relative to control; settings: values are per cent of control
NCI-H226 [16] = assay: Antiproliferative activity against human NCI-H226 cells at 10 uM assessed as cell growth inhibition relative to control; settings: values are per cent of control
[17] = Antiproliferative activity against human Hs 578T cells
NCI-H322M = assay: Antiproliferative activity against human NCI-H322M cells at 10 uM assessed as cell growth inhibition relative to control; settings: values are per cent of control
SNB-19 [18] = assay: Antiproliferative activity against human SNB19 cells
SF-268 = assay: Antiproliferative activity against human SF268 cells at 10 uM assessed as cell growth inhibition relative to control; settings: values are per cent of control
SN12C [19] = assay: Antiproliferative activity against human SN12C cells at 10 uM assessed as cell growth inhibition relative to control; settings: values are per cent of control
UACC-62 [20] = assay: Antiproliferative activity against human UACC62 cells
HL-60(TB) [21] = assay: Antiproliferative activity against human HL-60(TB) cells at 10 uM assessed as cell growth inhibition relative to control; settings: values are per cent of control
NCI-H460 [22] = assay: Antiproliferative activity against human NCI-H460 cells at 10 uM assessed as cell growth inhibition relative to control; settings: values are per cent of control
HT-29 [23] = assay: Antiproliferative activity against human HT-29 cells
OVCAR-3 [24] = assay: Antiproliferative activity against human OVCAR-3 cells
KM12 [25] = assay: Antiproliferative activity against human KM12 cells at 10 uM assessed as cell growth inhibition relative to control; settings: values are per cent of control
SNB-19 [26] = assay: Antiproliferative activity against human SNB19 cells at 10 uM assessed as cell growth inhibition relative to control; settings: values are per cent of control
OVCAR-3 [27] = assay: Antiproliferative activity against human OVCAR-3 cells at 10 uM assessed as cell growth inhibition relative to control; settings: values are per cent of control
SNB-75 = assay: Antiproliferative activity against human SNB75 cells at 10 uM assessed as cell growth inhibition relative to control; settings: values are per cent of control
HCT-15 = assay: Antiproliferative activity against human HCT15 cells
SK-MEL-2 = assay: Antiproliferative activity against human SK-MEL-2 cells at 10 uM assessed as cell growth inhibition relative to control; settings: values are per cent of control
K562 = assay: Antiproliferative activity against human K562 cells
UO-31 [28] = assay: Antiproliferative activity against human UO31 cells

With `CCOC(=O)C[C@H]1[C@@H](O[Si](C)(C)C(C)(C)C)[C@H](n2cnc3c(NC(=O)Nc4ccccc4)ncnc32)O[C@@H]1COC(=O)NC` the GI50 (SN12C [1]) was 2.17 µM, the growth, % of control at 10 µM [2] was 57% and the growth, % of control at 10 µM (COLO 205) was 67%. It also gave a growth, % of control at 10 µM (UACC-62 [3]) of 65%, a growth, % of control at 10 µM (MOLT-4) of 34% and a GI50 (U-251) of 7.57 µM. The GI50 (MDA-MB-231) was 17.5 µM, the GI50 (KM12 [4]) was 3.21 µM and the growth, % of control at 10 µM (HT-29 [5]) was 9%. It also gave a growth, % of control at 10 µM (UO-31 [6]) of 42%, a growth, % of control at 10 µM (IGROV-1) of 49% and a GI50 (HL-60(TB) [7]) of 0.00139 µM. The GI50 (NCI-H460 [8]) was 4.45 µM, the GI50 (A549 [9]) was 6.93 µM and the growth, % of control at 10 µM (ACHN [10]) was 26%. For the same compound, the GI50 (M14) was 6.37 µM, the growth, % of control at 10 µM (A549 [11]) was 51% and the growth, % of control at 10 µM (HOP-92 [12]) was 62%. The GI50 (SK-MEL-5) was 5.7 µM, the GI50 (OVCAR-4) was 10.7 µM and the GI50 (NCI-H226 [13]) was 11.8 µM. It also gave a GI50 (PC-3) of 2.87 µM, a GI50 (HOP-92 [14]) of 6.52 µM and a GI50 (SF-539) of 11.5 µM. It also gave a growth, % of control at 10 µM (MCF7) of 12%, a growth, % of control at 10 µM (SK-OV-3) of 95% and a growth, % of control at 10 µM (BT-549) of 65%. The growth, % of control at 10 µM (TK-10) was 88%, the GI50 (SW-620) was 4.59 µM and the GI50 (ACHN [15]) was 5.92 µM. The growth, % of control at 10 µM (OVCAR-8) was 74%, the growth, % of control at 10 µM (Malme-3M) was 54% and the growth, % of control at 10 µM (NCI-H226 [16]) was 56%. It also gave a GI50 [17] of 3.39 µM, a growth, % of control at 10 µM (NCI-H322M) of 91% and a GI50 (SNB-19 [18]) of 49.2 µM. The growth, % of control at 10 µM (SF-268) was 60%, the growth, % of control at 10 µM (SN12C [19]) was 35% and the GI50 (UACC-62 [20]) was 15.8 µM. The growth, % of control at 10 µM (HL-60(TB) [21]) was 23%, the growth, % of control at 10 µM (NCI-H460 [22]) was 13% and the GI50 (HT-29 [23]) was 3.97 µM. It also gave a GI50 (OVCAR-3 [24]) of 2.42 µM, a growth, % of control at 10 µM (KM12 [25]) of 31% and a growth, % of control at 10 µM (SNB-19 [26]) of 99%. It also gave a growth, % of control at 10 µM (OVCAR-3 [27]) of 51%, a growth, % of control at 10 µM (SNB-75) of 45% and a GI50 (HCT-15) of 11.7 µM. For the same compound, the growth, % of control at 10 µM (SK-MEL-2) was 60%, the GI50 (K562) was 3.09 µM and the GI50 (UO-31 [28]) was 5.7 µM.
